From patent US20260049337A1, “A R[…] A[…] OF INHIBITING TUMOR P[…] […] TIME IN TUMOR-BEARING I[…] USE THEREOF” (NANJING VIROTHER BIOPHARMACEUTICAL CO., LTD., priority 2022, published 2026)

Assays:
[1] = test system: LCN2 expression in CD8+ T cells; test: Panc02 cells cocultured with CD8+ T cells, flow cytometry for LCN2; assay type: cell-based; conditions: coculture with Panc02 for 24 h; vs coculture without GLP1(7-36), p<0.01
Description: Panc02 cells were cocultured with CD8+ T cells with or without GLP1(7-36) for 24 h, then T cells were subjected to flow cytometry for determination of LCN2 expression (FIG. 28A).

[2] = test system: LCN2 expression in CD8+ T cells; test: CD8+ T cells cultivated with Panc02 supernatant, FACScan for Lcn2; assay type: cell-based; conditions: 24 h, vs absence of agonist, p<0.001
Description: Panc02 cells were cultivated in DMEM for 48 h, then supernatant was harvested and added into CD8+ T cells for further 24 h cultivation in the presence or absence of GLP1(7-36) or GLP1 analogue (Liraglutide) followed by FACScan for Lcn2 determination (FIG. VI(B)-3B).

**Q.** “GLP-1(7-36): GLP-1 receptor agonist peptide, SEQ ID NO: 1, HAEGTFTSDVSSYLEGQAAKEFIAWLVKGR” was tested. Which “Lcn2 expression in CD8+ T cells” value [1] did it give?
**A.** statistically significantly reduced

**Q.** And the “Lcn2 expression in CD8+ T cells” value [2]?
**A.** statistically significantly reduced
